According to publication PMC11453076, “Optimization, purification and characterization of laccase from a new endophytic Trichoderma harzianum AUMC14897 isolated from Opuntia ficus-indica and its applications in dye decolorization and wastewater treatment” (Microbial Cell Factories, 2024):

System: T1, laccase from T. harzianum AUMC14897
T1 construct: gene benzenediol:oxygen oxidoreductase; 72 kDa by GFC and SDS-PAGE; single zymogram band
Test: ABTS oxidation at […] nm, Lineweaver-Burk plot
Type: biochemical, Trichoderma harzianum
Conditions: ABTS 0.02-0.1 mM; pH and temperature of the Km assay not restated (general assay: 50 mM sodium acetate pH 5.4, 37 °C)

## CCn1c(=NN=c2sc3cc(S(=O)(=O)O)ccc3n2CC)sc2cc(S(=O)(=O)O)ccc21 [ABTS, 2,2'-Azino-bis(3-ethylbenzothiazoline-6-sulfonic acid)]
  Km: 100 µM
